The numbers were not newly measured in patent US11324751B1 (Janssen Pharmaceutica NV, priority 2020, dated 2022), which cites them from elsewhere.

The structures appear in SMILES notation.

Consider `CCCCCCCCCCCCCCCC(=O)OC1CCCn2c1nc(C)c(CCN1CCC(c3noc4cc(F)ccc34)CC1)c2=O` (racemic) [paliperidone palmitate, (=)-3-[2-[4-(6-fluoro-1,2-benzisoxazol-3-yl)-1-piperidinyl]ethyl]-6,7,8,9-tetrahydro-2-methyl-4-oxo-4H-pyrido[1,2-c]pyrimidin-9-yl hexadecanoate], for which the water solubility result was “extreme low water solubility”.
